Marks after values point to notes of the source that are not given here.
Assays:
[1] = Sperm plasma membrane integrity (PMI) by SYBR-14/PI fluorescence staining; format: cell-based, dairy goat
Excerpt: (§1) 1) add different concentrations of gamma-aminobutyric acids into a tupping ram semen base diluent, and take a group without gamma-aminobutyric acid added as the control group; take a group with gamma-aminobutyric acid added as the experimental group, the addition concentrations are respectively 0.5 g/L, 1.0 g/L, 1.5 g/L and 2.0 g/L, and six duplications exist in each group; screen out the optimal concentration of gamma-aminobutyric acid according to semen quality indexes, set the optimal concentration to T group, and detect the semen membrane and acrosome integrity, various antioxidant enzyme activities and ROS content change after adding the optimal concentration of gamma-aminobutyric acid;

sperms = assay: Antioxidant indexes of sperms (T-AOC, SOD, GSH-Px, MDA, CAT, ROS) by Solarbio kits; format: cell-based, dairy goat
Excerpt: as §1

dairy goat sperms = assay: Sperm viability and motility by CASA semen assisted analysis during preservation at 4 degrees C.; format: cell-based
Method: 1) prepare base diluent: add 30.3 g/L Tris, 16.0 g/L citric acid, 6.4 g/L glucose, 6.4 g/L D-fructose, 2.5 g/L trehalose, 1.0 g/L BSA and 3.75 g/L soybean lecithin into distilled water to 1 L, dissolve in a water bath for 1 hour at 37 degrees C., filter and sterilize, and then add 1 million IU/L penicillin and 1 million IU/L streptomycin; select semen with motility more than 80% for preservation, and keep diluent warm in a water bath at 37 degrees C. before semen dilution; gradually dilute at the dilution ratio (add the diluent into each group of semen along the tube wall during the operation), dilute the semen with the diluent at 1:1 and stand for 3 minutes, then dilute the semen with the diluent at 1:3 and stand for 3 minutes, and let the ratio of semen to diluent reach 1:7 (keep the temperature at 33-35 degrees C. during dilution); bind a centrifuge tube containing the diluted semen with a rubber band and put the centrifuge tube into a beaker containing isothermal water, keep the centrifuge tube vertical and the water level in the beaker higher than the diluent level of in the centrifuge tube, place for 1 hour at room temperature, put the beaker into a refrigerator at 4 degrees C., keep the cooling rate at 8-10 degrees C./h, and shake the centrifuge tube every 8 hours to prevent the sperms from accumulating, sinking to bottom and resulting in death;
2) take 5 μL of semen on the days 0, 1, 3 and 5 of semen preservation, put the semen on slides, preheat an objective table and perform microscopic examination at 37 degrees C., and detect semen motility and viability by Meilan CASA semen assisted analysis system; select at least five random fields of view for determination, with a minimum semen count of 200 in each field; the ratio of number of live sperms to total number of sperms is sperm viability, and the ratio of number of linearly moving sperms to total number of sperms is sperm motility. Average the results, and record the test data (see Table 1);
as §1

tupping ram sperms = assay: Sperm acrosome integrity (CGI) by FITC-PNA fluorescence staining; format: cell-based, dairy goat
Excerpt: as §1

[2] = experimental group, day 5 of preservation at 4 degrees C.
[3] = optimal concentration (T group), day 3 of preservation at 4 degrees C., P<0.05
[4] = preservation day not given, P<0.05
[5] = 0.5 g/L in base diluent, Day 5 at 4 degrees C.
[6] = 1.0 g/L in base diluent, Day 5 at 4 degrees C.
[7] = 1.5 g/L in base diluent, Day 5 at 4 degrees C.
[8] = 2.0 g/L in base diluent, Day 5 at 4 degrees C.

NCCCC(=O)O [gamma-aminobutyric acid, Gamma-aminobutyric acid]
Plasma membrane integrity of sperms [1, 2]: 58.93%
Plasma membrane integrity of sperms, T group vs NC group [1, 3]: significantly higher
GSH-Px, T group vs NC group (sperms; day 1 of preservation): not significantly different
MDA, T group vs NC group (sperms; day 1 of preservation): not significantly different
T-AOC, T group vs NC group (sperms; day 1 of preservation): not significantly different
CAT enzyme activity, T group vs NC group (sperms; day 1 of preservation, P<0.05): significantly increased
Level of ROS, T group vs NC group (sperms; day 1 of preservation, P<0.05): significantly decreased
SOD enzyme activity, T group vs NC group (sperms; day 1 of preservation, P<0.05): significantly increased
Level of CAT, T group vs NC group (sperms; [4]): significantly higher
Level of GSH-Px, T group vs NC group (sperms; [4]): significantly higher
Level of MDA, T group vs NC group (sperms; [4]): significantly lower
Level of ROS, T group vs NC group (sperms; [4]): significantly lower
Level of SOD, T group vs NC group (sperms; [4]): significantly higher
Level of T-AOC, T group vs NC group (sperms; [4]): significantly higher
Semen motility % (dairy goat sperms; 0.5 g/L in base diluent, Day 0): 81.36 ± 2.05%
Sperm viability % (dairy goat sperms; 0.5 g/L in base diluent, Day 0): 84.12 ± 2.15%
Semen motility % (dairy goat sperms; [5]): 50.69 ± 1.05^b %
Sperm viability % (dairy goat sperms; [5]): 52.45 ± 1.22^b %
Sperm motility compared with other addition groups (dairy goat sperms; 1 g/L): higher than those in other addition groups
Sperm viability compared with other addition groups (dairy goat sperms; 1 g/L): higher than those in other addition groups
Semen motility % (dairy goat sperms; 1.0 g/L in base diluent, Day 0): 81.36 ± 2.05%
Sperm viability % (dairy goat sperms; 1.0 g/L in base diluent, Day 0): 84.12 ± 2.15%
Semen motility % (dairy goat sperms; [6]): 53.69 ± 0.84^a %
Sperm viability % (dairy goat sperms; [6]): 56.49 ± 1.32^a %
Semen motility % (dairy goat sperms; 1.5 g/L in base diluent, Day 0): 81.36 ± 2.05%
Sperm viability % (dairy goat sperms; 1.5 g/L in base diluent, Day 0): 84.12 ± 2.15%
Semen motility % (dairy goat sperms; [7]): 47.32 ± 2.41^c %
Sperm viability % (dairy goat sperms; [7]): 50.52 ± 2.74^b %
Semen motility % (dairy goat sperms; 2.0 g/L in base diluent, Day 0): 81.36 ± 2.05%
Sperm viability % (dairy goat sperms; 2.0 g/L in base diluent, Day 0): 84.12 ± 2.15%
Semen motility % (dairy goat sperms; [8]): 45.55 ± 1.52^d %
Sperm viability % (dairy goat sperms; [8]): 45.36 ± 2.31^c %
Acrosome integrity of sperms (tupping ram sperms; [2]): 60.12%
Acrosome integrity of sperms, T group vs NC group (tupping ram sperms; [3]): significantly higher

Source: patent publication US20250354127A1, “CRYOPRESERVED DAIRY GOAT SEMEN METABOLITE SCREENING AND DILUENT PREPARATION METHOD” (NORTHWEST A&F UNIVERSITY, priority 2024, published 2025)
